Experiment [1] deals with KLF5. As to conditions: cited from earlier work.
Experiment [2] has as its system reactive oxygen species in myocardium. As to the kind of experiment: DHE staining of myocardium (superoxide detection, oxidative stress) after I/R. The format is in vivo, mouse (C57BL/6). As to conditions: 2 h reperfusion; apocynin 5 mg/kg/12 h or GLX351322 3.8 mg/kg/12 h, intraperitoneal, at early reperfusion. Here is the method: The myocardial ischemia/reperfusion surgical protocol was applied as follows. Mice were anesthetized with 2% isoflurane inhalation until anesthesia was achieved. The animals' body temperature was maintained at 37 °C throughout the surgical procedure using a heating pad. A tracheal tube was placed via tracheal intubation and the respiration rate was set at 150 strokes/min with a tidal volume of 200 μL, using Minivent ventilator for mice (Model 845, Harvard Apparatus). A 1.2 cm incision was made over the left chest. After retraction of the pectoral major and minor muscles, the fourth intercostal space was exposed. […] The left anterior descending coronary artery (LAD) was then located, sutured, and ligated at a site 3-4 mm distal to the origin of the artery under the left atrium using a 6-0 silk suture. The heart was allowed to stabilize for 15 min and right after, ischemia was induced by tightening the suture against a small piece of polyethylene tube. At the end of the 30-minute ischemia period, the ligature was released for the induction of reperfusion, and then the manual evacuation of air and closure of muscle and skin were performed. The mouse was then monitored during the recovery period, which was generally completed within 3 to 5 minutes. […]
Live myocardium was isolated from mice at the time of euthanasia and stained with 20 μM dihydroethidium (DHE) for 30 min at room temperature. […] Individual nuclei were measured within each visual field using ImageJ software, and visual fields were averaged to measure mean fluorescence intensity for each mouse.
In order to unravel the mechanisms of KLF5-mediated cardiotoxicity, oxidative stress levels were evaluated at early reperfusion. […] Given the fact that inflammation and diapedesis of immune cells are important hallmarks of the post-ischemia-reperfusion response, the mRNA levels of IL-1α, IL-1β, IL-6, IL-10, and TNFα in the ischemic myocardium upon ML264 treatment were evaluated at 2 hours of reperfusion (FIGS. 51-5M) and 24 hours of reperfusion (FIGS. 5N-5Q). […]

A further experiment relates to NOX4. The settings on record: cited from earlier work.
In experiment [3] the test system is myocardial ischemia-reperfusion injury in mice. The experiment in a line: Infarct size evaluation upon Evans Blue/TTC staining after myocardial I/R. The format is in vivo, mouse (C57BL/6). Here is the method:
The myocardial ischemia/reperfusion surgical protocol was applied as follows. Mice were anesthetized with 2% isoflurane inhalation until anesthesia was achieved. The animals' body temperature was maintained at 37 °C throughout the surgical procedure using a heating pad. A tracheal tube was placed via tracheal intubation and the respiration rate was set at 150 strokes/min with a tidal volume of 200 μL, using Minivent ventilator for mice (Model 845, Harvard Apparatus). A 1.2 cm incision was made over the left chest. After retraction of the pectoral major and minor muscles, the fourth intercostal space was exposed. […] The left anterior descending coronary artery (LAD) was then located, sutured, and ligated at a site 3-4 mm distal to the origin of the artery under the left atrium using a 6-0 silk suture. The heart was allowed to stabilize for 15 min and right after, ischemia was induced by tightening the suture against a small piece of polyethylene tube. At the end of the 30-minute ischemia period, the ligature was released for the induction of reperfusion, and then the manual evacuation of air and closure of muscle and skin were performed. The mouse was then monitored during the recovery period, which was generally completed within 3 to 5 minutes. Sustain-released buprenorphine (BupSR, 0.5 mg/kg body weight) was provided by subcutaneous injection. Mice were then left to recover until the end of the reperfusion (2 hours, 12 hours, 24 hours, or 4 weeks). The sham group underwent the same surgical procedure except that the LAD was not occluded.
Double staining of the heart with Evans Blue dye and Triphenyl-Tetrazolium Chloride (TTC) solution was employed for infarct size measurements. Mice were anesthetized upon 3% isoflurane inhalation. The thorax was cut and opened, and hearts were gently excised. Then, the aorta was cannulated and perfused with 5 mL of normal saline. The suture was re-tightened and Evans Blue solution (2.5% in WFI) was slowly infused through the aorta, to differentiate the ischemic part of the myocardium from the non-occluded, normally perfused area. The hearts were sliced into 1-2 mm sections immediately following. The heart slices were incubated with TTC solution (1% in PBS, pH=7.4) at 37 °C for 20 min. In this way, the necrotic area is delimited as a white area, while the viable tissue is stained red. […] The overall size of each slice (All/A), the area-at-risk (R), and the infarct area (I) were determined in a blinded manner for each slice using ImageJ software, and the percentages of Area at Risk (R/A) % and I/R % were calculated. […]
Administration of these two compounds was performed 5 minutes before the reopening of the coronary artery and infarct size was assessed upon 30 minutes of ischemia followed by 24 hours of reperfusion therapy.

The subject of another experiment is KLF5 promoter. The settings on record: colorectal cancer cell lines; Bialkowska 2011; cited from earlier work.
Experiment [4] relates to KLF5. The settings on record: colorectal cancer cell lines; Bialkowska 2011; cited from earlier work.
The mark [5] stands for this setting: apocynin 5 mg/kg/12 h or GLX351322 3.8 mg/kg/12 h, intraperitoneal, at early reperfusion, vs vehicle.

For the molecule `CC(C)(C)c1cc(/C=C(\C#N)C(N)=S)cc(C(C)(C)C)c1O` [AG879], in the experiment on KLF5 [1], the “inhibition of KLF5” value was “inhibit”.
`CCOC(=O)c1c(NC(=O)CN2CCN(C(=O)c3ccco3)CC2)sc2c1CCC2` [GLX-351322]: in experiment [2], the “oxidative stress (DHE staining)” value is given as “significant suppression”. In addition, the “hydrogen peroxide production from NOX4-overexpressing cells” value in the experiment with NOX4 is on record as “inhibits”. Also, in experiment [3] (setting [5]), the infarct size result is on record as “significant reduction”.
As for `CC(C)(C)c1ccc(S(=O)(=O)NCc2ccc(C(=O)Nc3cccnc3)cc2)cc1` [STF-31], in experiment [3] (GLUT inhibitors 5 min before reopening of coronary artery, 30 min ischemia, 24 h reperfusion), the infarct size entry is recorded as “not by STF-31 treatment”.
For `COc1cc(C(C)=O)ccc1O` [apocynin, acetovanillone], in experiment [2], the “oxidative stress (DHE staining)” value is “significant suppression”. The infarct size result in experiment [3] (setting [5]) is given as “significant reduction”.
Take `CC(C)(C)c1cc(C=C(C#N)C#N)cc(C(C)(C)C)c1O` [AG17]: the KLF5 promoter activity entry with KLF5 promoter is “reduce”. In addition, the KLF5 protein level entry in the experiment on KLF5 [4] is recorded as “reduce”.

Source of the values: patent US20260335279A1, “METHODS OF TREATING ISCHEMIA-REPERFUSION INJURIES” (University of Cincinnati, priority 2022, published 2026).
